{"source": "patent US7160684B2", "about": "“Methods of selecting compounds for modulation of bladder function” (Wyeth, priority 2000, dated 2007)", "key": {"[1]": {"system": "isolated rat bladder smooth muscle cell", "test": "Voltage clamp recording of outward current, rat cells", "assay_type": "cell-based", "description": "(§1) Rat detrusor cells are isolated in a manner previously described for guinea-pig detrusor (Sheldon J H, Norton N W and Argentieri T M (1997) Inhibition of guinea pig detrusor contraction by NS-1619 is associated with activation of BKCa and inhibition of calcium currents. J Pharmacol Exp Thera 283(3): 1193–1200). Male Sprague-Dawley rats (Charles River, Wilmington, Mass.; 200–400 grams) are euthanized by CO2 inhalation and exsanguination. Their urinary bladders are rapidly removed and placed in 37° C. physiological solution with the following composition (mM): Na glutamate (80.0), NaCl (54.7), KCl (5.0), NaHCO3 (25.0), MgCl2.2H2O (2.5), D-glucose (11.8) and CaCl2 (0.2) gassed with O2—CO2, 95%/5% for a final pH of 7.4. The dome of the bladder is isolated from the trigone region and the mucosa is removed. This tissue is then cut into 2–3 mm wide strips and placed into fresh buffer for 1 hour. Tissues are then transferred into 10 ml of an isolation buffer containing the above composition plus collagenase type VIII (1.0 mg/ml) and pronase (0.25 mg/ml). After 10 minutes the isolation buffer is replaced with fresh isolation buffer for an additional 10 min. The tissue is then washed 3 times in fresh collagenase and pronase free solution and stored at room temperature until studied. Cells for study are prepared by triturating 1–2 pieces of detrusor tissue in 2 ml of fresh isolation buffer for 5 minutes with a polished Pasteur pipette, (tip diameter ˜1.5 mm) attached to a modified Harvard Respirator pump (Harvard Apparatus, Southnatic, Mass.) at a rate of 20×/min. with an approximate volume of 5 ml. Cells are then placed on a microscope stage in a temperature regulated tissue bath at 32.5° C. and continually superfused with PSS.\n(§2) Single cell recordings are performed with a List-Medical EPC-7 patch clamp amplifier (Adams & List Assoc., Westbury, N.Y.). Pipette electrodes had tip resistances of 2–4 MΩ and are filled with the following composition (mM): KCl (126.0), MgCl2.6H2O (4.5), ATP Mg salt (4.0), GTP tris salt (0.3), creatine PO4 (14.0), D-glucose (9.0), EGTA (9.0), HEPES (9.0). The pH is adjusted to 7.4 with KOH. Signals are acquired (3 kHz high frequency cut-off, 12 bit resolution) using a 586-based personal computer.\nWhole cell recordings are made using broken patch access. Currents are evoked using either voltage steps (Vh=−50; Vt=−60 to 40 mV) or voltage ramps (−60 to 40 mV at 3.3 mV/sec.). The exact voltage clamp protocols are well known in the art. After stability is achieved control currents are recorded. Next, test compound is added to the superfusate. Currents are recorded for 5 to 10 minutes or until compound effects reach steady state. This is followed either by washout or addition of antagonists (linopirdine, XE-991) to the superfusate. […]"}, "[2]": {"system": "isolated rat bladder smooth muscle cell", "test": "Current clamp recording of resting membrane potential, rat cells", "assay_type": "cell-based", "description": "as §1, §2\nCell resting membrane potential (RMP) is measured in current clamp using the above mentioned instrumentation and pipette solutions. For these experiments nystatin is also added to the pipette solution (100 μg/ml) to allow recording through utilization of the perforated patch technique (Korn, et al, 1991). […] After this time, various antagonists (linopirdine, XE-991) are added to the perfusate and RMP is recorded for an additional 5 minutes. […]"}, "[3]": {"system": "cultured human bladder smooth muscle cells", "test": "Voltage clamp recording of outward current, human cells", "assay_type": "cell-based", "conditions": "XE-991 (10 μM in FIG. 3d)", "experimental": "as §2\nWhole cell recordings are made using broken patch access. Currents are evoked using either voltage steps (Vh=−50; Vt=−60 to 40 mV) or voltage ramps (−60 to 40 mV at 3.3 mV/sec.). The exact voltage clamp protocols are well known in the art. After stability is achieved control currents are recorded. Next, test compound is added to the superfusate. Currents are recorded for 5 to 10 minutes or until compound effects reach steady state. This is followed either by washout or addition of antagonists (linopirdine, XE-991) to the superfusate.\nCellular electrophysiological studies were conducted using both voltage and current clamp techniques (Hammill, O., P., Marty, A., Neher, E., Sakmann, B. & Sigworth, F. J.: Improved patch-clamp techniques for high-resolution current recordings from cells and cell-free membrane patches. Pflugers Arch 391: 85–100 (1981)) from Sprague-Dawley rat (200–400 grams) bladders as previously described, (Wojdan, A., Freeden, C., Woods, M., Oshiro, G., Spinelli, W. et al., J. Pharmacol Exp Therap 289: 1410–1418 (1999)) and from a human bladder, primary cell culture (Colnetics, San Diego, Calif.). In rat cells, the average, control resting membrane potential (RMP) was −29.0±4.5 mV. […]\nRat bladder strips were isolated and prepared as previously described (Wojdan, A., Freeden, C., Woods, M., Oshiro, G., Spinelli, W. et al., J Pharmacol ExpTherap 289:1410–1418 (1999)). […] Message for KCNQ subunits was probed using quantitative rtPCR on an ABI PRISM 7700 Sequence Detection System (TAQMAN). […]"}, "[4]": {"system": "isolated rat bladder strips", "test": "Isolated rat bladder strip contraction", "conditions": "strips precontracted with 20 mM KCl; for antagonism of the effects of retigabine on bladder strip contractions: 10 μM antagonist", "experimental": "Male Sprague-Dawley rats (200–400 grams) are euthanized by CO2 inhalation and exsanguination. Their urinary bladders are rapidly removed and placed in […] physiological salt solution (PSS) that contained the following (mM): NaCl (118.4), KCl (5), CaCl2 (2.5), MgSO4 (1.2), KH2PO4 (1.2), NaHCO3 (24.9) and D-glucose (11.1) gassed with O2/CO2 (95% /5%) to achieve a pH of 7.4. The dome of the bladder is isolated from the trigon region and this tissue is then cut into 4–5 mm wide by 10 mm long strips. One end is secured to the bottom of a water jacketed tissue bath and the other to a GRASS isometric force transducer (Grass Instruments, Quincy, Mass.). Tissues are pretensioned (0.25 to 0.5 grams), and after 30 minutes of equilibration are contracted with an additional 15 mM KCl (total of 20 mM) and again allowed to equilibrate until the preparations are contracting steadily. Any of a variety of compounds are administered directly into the tissue baths as sequential concentrations. Transducer signals are digitized (12 bit resolution) and analyzed on-line using a 586-based computer and custom software. The area under the contraction curve (AUC) is used as a measure of contractility since the spontaneous bladder contractions are irregular in amplitude and frequency. A 5-minute AUC value is taken 30 minutes after administration of each compound concentration to the tissue bath.\nWe isolated rat bladder strips from male Sprague-Dawley rats as previously described, (Wojdan, A., Freeden, C., Woods, M., Oshiro, G., Spinelli, W. et al., J Pharmacol Exp Therap 289: 1410–1418 (1999)) and precontracted them with 20 mM KCl. The KCNQ channel agonist retigabine, was added to the tissue bath in increasing concentrations, and area under the contraction curve was analyzed.\nIn another study, isolated rat bladder strips were precontracted with 60 mM KCl (FIG. 1).\nThe difference in IC50s between 20 and 60 mM KCl depolarizations are consistent with a potassium channel opening mechanism.\nRat bladder strips were isolated and prepared as previously described (Wojdan, A., Freeden, C., Woods, M., Oshiro, G., Spinelli, W. et al., J Pharmacol ExpTherap 289:1410–1418 (1999)). Preparations were contracted with either 20 or 60 mM KCl, or 200 nM carbachol. A five minute area under the contraction curve was acquired 20 minutes after addition of each concentration of retigabine using a 12 bit D/A and a 586 based personal computer running custom software. Message for KCNQ subunits was probed using quantitative rtPCR on an ABI PRISM 7700 Sequence Detection System (TAQMAN). Forward and reverse primers and TAQMAN probes were designed using published RNA sequences for human KCNQ1–5 and rat KCNQ 1–4 listed within the NCBI data base. Since no rat sequence for KCNQ5 were currently published, probes and primers were designed by BLAST analysis of rat Expressed Sequence Tags (EST) using the known mouse KNCQ5 sequence. From homologous EST sequences, a contiguous sequence of 384 base pairs was constructed. Probes and primers were designed against this sequence. BLAST analysis of our rat KCNQ5 probes and primer were selective for mouse and human KCNQ5 sequences. PCR products were confirmed by gel electrophoresis (data not shown). Cells for electrophysiology were prepared from rat bladder smooth muscle as previously described (Wojdan et al., 1999). Human bladder smooth muscle cells were obtained from Clonetics, San Diego, Calif. […]"}}}
{"compound": "O=C1c2ccccc2C(Cc2ccncc2)(Cc2ccncc2)c2ccccc21", "note": "[XE-991, 10,10-bis(4-pyridinylmethyl)-9(10H)-anthracenone]", "values": [{"measurement": "reversal of retigabine-induced increase in outward current", "setting": "[1]; XE-991 10 μM", "result": "partially reversed"}, {"measurement": "reversal of retigabine-induced hyperpolarization", "setting": "[2]; 10 μM XE-991 after 10 μM retigabine", "result": "completely reversed"}, {"measurement": "effect on membrane potential relative to initial RMP", "setting": "[2]; 10 μM XE-991 after retigabine", "result": "depolarized the cell below its initial RMP"}, {"measurement": "reversal of retigabine-induced changes (hyperpolarization, outward current)", "setting": "[3]", "result": "partially reversed"}, {"measurement": "antagonism of the effects of retigabine on bladder strip contractions", "setting": "[4]", "result": "94.8±17.5", "unit": "%"}]}
{"compound": "COc1ccc(Cl)cc1C(=O)NCCc1ccc(S(=O)(=O)NC(=O)NC2CCCCC2)cc1", "note": "[glyburide]", "values": [{"measurement": "reversal of the effects of retigabine on bladder strip contractions", "setting": "[4]; glyburide 10 μM", "result": "not reversed"}]}
{"compound": "O=C1N(c2ccccc2)c2ccccc2C1(Cc1ccncc1)Cc1ccncc1", "note": "[linopirdine]", "values": [{"measurement": "reversal of retigabine-induced increase in outward current", "setting": "[1]; linopirdine 50 μM", "result": "partially reversed"}, {"measurement": "antagonism of the effects of retigabine on bladder strip contractions", "setting": "[4]", "result": "94.8±17.5", "unit": "%"}]}
{"compound": "iberiotoxin (QFTDVDCSVSKECWSVCKDLFGVDRGKCMGKKCRCYQ; UniProt P24663 1-37, looked up)", "values": [{"measurement": "sensitivity of retigabine-induced increase in outward current to blocker", "setting": "[1]; 100 nM iberiotoxin", "result": "not sensitive"}]}
